Results on 6 molecules are retold here after publication PMC11367503, “Exploring galectin interactions with human milk oligosaccharides and blood group antigens identifies BGA6 as a functional galectin-4 ligand” (The Journal of Biological Chemistry, 2024).

For assay [1], the target named is T1, human Gal-7 (Homo sapiens, UniProt P47929).
T1 construct: made in house; host or cells: Escherichia coli BL21 (DE3)
As to the kind of experiment: Competitive solid-phase assay (SPA), immobilized asialofetuin, Gal-7. In kind it is binding. The conditions noted are these: competitive SPA, immobilized asialofetuin; mean ± S.D., three independent experiments. As to the method: (§1) The assay was adapted from Rapoport et al. (2010) ([88]). Briefly, 96-well plates (flat-bottom) were coated with 10 μg/ml asialofetuin (ASF, Sigma-Aldrich) in sodium carbonate buffer (pH 9.6) and incubated overnight at 4 °C. Then, wells were washed three times with 100 μl/well PBS-Tween 0.05% (w/v) and blocked with 100 μl/well PBS-bovine serum albumin (BSA) 2% (1 h, room temperature (RT)) in a humid chamber. Meanwhile, equal volumes of human recombinant Gal-1, -3, -4, -7, and -12 (20–40 μg/ml) in PBS-BSA 0.3% buffer were preincubated with the corresponding inhibitors in serial dilutions (2 h, 37 °C). After washing, galectins were detected using the corresponding antigalectin primary detection antibodies in PBS-BSA 0.3% w/v (1 h at RT). For Gal-1, wells were incubated with an in-house purified 100 ng/ml biotinylated rabbit anti–human Gal-1 polyclonal immunoglobulin G. For Gal-3, -4, and -7, a 1:500 dilution of the corresponding biotinylated anti-human galectin antibodies was used (BAF1154, BAF1227, and MAB13391, respectively, R&D Systems). For Gal-12, a rabbit anti-human Gal-12 polyclonal antibody (Santa Cruz Biotechnology, 1:700) was used. For Gal-1, -3, -4, and -7, plates were rinsed three times before adding 0.33 μg/ml horseradish peroxidase (HRP)-labeled streptavidin (Sigma-Aldrich) for 30 min. For Gal-12, an anti-rabbit secondary antibody conjugate coupled to HRP was incubated for 1 h at RT in PBS-BSA 0.3% w/v. After washing, 100 μl TMB solution (0.1 mg/ml tetramethylbenzidine and 0.06% H2O2 in citrate-phosphate buffer, pH 5.0) was added to plates. The reaction was stopped by adding a 2N H2SO4 solution. Absorbance was determined at 450 nm in a Multiskan MS microplate reader (Thermo Fisher Scientific).

Assay [2] deals with T2, human Gal-4 (Homo sapiens, UniProt P56470).
T2 construct: His6-SUMO (N, cleaved yes); made in house; host or cells: Escherichia coli BL21 (DE3)
T2 sequence (P56470 1-323): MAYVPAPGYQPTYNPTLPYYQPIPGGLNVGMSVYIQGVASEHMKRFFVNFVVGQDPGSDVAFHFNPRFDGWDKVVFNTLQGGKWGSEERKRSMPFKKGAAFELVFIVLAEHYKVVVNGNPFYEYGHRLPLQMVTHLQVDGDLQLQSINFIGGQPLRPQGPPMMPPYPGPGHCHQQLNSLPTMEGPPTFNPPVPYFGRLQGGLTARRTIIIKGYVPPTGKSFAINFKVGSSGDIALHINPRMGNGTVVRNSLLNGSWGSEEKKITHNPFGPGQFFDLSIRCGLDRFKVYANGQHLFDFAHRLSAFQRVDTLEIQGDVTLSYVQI
As to the kind of experiment: Competitive solid-phase assay (SPA), immobilized asialofetuin, Gal-4. In kind it is binding. The conditions noted are these: mean ± S.D., three independent experiments. The protocol: as §1

The target of assay [3] is T3, human Gal-3 (Homo sapiens, UniProt P17931).
T3 construct: made in house; host or cells: Escherichia coli BL21 (DE3)
As to the kind of experiment: Competitive solid-phase assay (SPA), immobilized asialofetuin, Gal-3. In kind it is binding. The conditions noted are these: mean ± S.D., three independent experiments. The protocol: as §1

Assay [4] addresses T4, human Gal-1 (Homo sapiens, UniProt P09382).
T4 construct: made in house; host or cells: Escherichia coli BL21 (DE3)
As to the kind of experiment: Competitive solid-phase assay (SPA), immobilized asialofetuin, Gal-1. The following applies: mean ± S.D., three independent experiments. The format is binding. The protocol:
as §1

Assay [5] addresses T2, human Gal-4. As to the kind of experiment: Inhibition of Gal-4-driven IL-6 secretion by activated PBMCs (IL-6 ELISA). The conditions noted are these: Gal-4 50 or 100 μg/ml; BGA6 0.5, 1, 2.5 and 5 mM; 72 h; anti-CD3/CD28 activated PBMCs. In kind it is cell-based. As to the method: (§2) PBMCs were isolated from anonymous healthy volunteer buffy coats (Fundación Hemocentro Blood Bank, Buenos Aires, Argentina), using Ficoll-Hypaque density gradient (Lymphoprep). The samples were then centrifuged at 1500 rpm for 25 min, and the interface corresponding to mononuclear cells was carefully removed and diluted with PBS supplemented with 2% fetal bovine serum. To reduce platelet contamination, three washing steps with PBS 2% fetal bovine serum were performed, and freshly isolated PBMCs were subsequently resuspended in complete RPMI medium. To obtain a bead to T-cell ratio of 1:1, approximately 16 × 10^4 PBMCs were activated with 2 μl of Dynabeads Human T-Activator CD3/CD28 (Gibco). After 24 h stimulation at 37 °C and 5% CO2, cells were incubated with human recombinant Gal-4 (25, 50, or 100 μg/ml) in the absence or presence of BGA6 (0.5, 1, 2.5, and 5 mM) for an additional time period of 72 h.
(§3) Human IL-6 was determined in supernatants from activated PBMCs exposed or not to Gal-4 in the absence or presence of BGA6 using specific ELISA kits (BD Biosciences), according to the manufacturer's instructions. Briefly, 96-well plates (Costar) were coated with capture antibody during 18 h at 4 °C. […] Reaction was stopped with 2N H2SO4, and the absorbance was measured at 450 nm using a plate spectrophotometer (Multiskan).

For assay [6], the target named is T2, human Gal-4. As to the kind of experiment: Isothermal titration calorimetry (ITC), Gal-4. In kind it is binding. The conditions noted are these: Gal-4, PBS, 298 K; for Kd: n fixed to 1.00. The protocol: (§4) All ITC experiments were performed by using a NanoITC (TA Instruments) under previously optimized conditions ([89]). A typical titration involved 20 injections at 300 s intervals of 2.5 μl aliquots of a 2.5 to 10 mM ligand solution into the sample cell (volume 200 μl) containing the different galectins (30–100 μM). The solutions were prepared by dissolving the glycan ligands in degassed PBS buffer at 298 K. The titration cell was continuously stirred at 300 rev/min. The heats of dilution of the ligands in the buffer were subtracted from the titration data. […] Fitting was performed using the Nano Analyze software (TA Instruments; https://www.tainstruments.com/itcrun-dscrun-nanoanalyze-software/) to determine association constants (Ka) and the enthalpy change (ΔH). No reliable fit of the thermodynamic parameters could be obtained for binding affinities above 80 μM.

Assay [7] concerns the target T5, human Gal-12 (Homo sapiens, UniProt Q96DT0).
T5 construct: To obtain full-length human Gal-12, we adapted our previously optimized procedure for murine Gal-12; made in house; host or cells: Escherichia coli Rosetta 2 (DE3)
T5 sequence (Q96DT0 1-336): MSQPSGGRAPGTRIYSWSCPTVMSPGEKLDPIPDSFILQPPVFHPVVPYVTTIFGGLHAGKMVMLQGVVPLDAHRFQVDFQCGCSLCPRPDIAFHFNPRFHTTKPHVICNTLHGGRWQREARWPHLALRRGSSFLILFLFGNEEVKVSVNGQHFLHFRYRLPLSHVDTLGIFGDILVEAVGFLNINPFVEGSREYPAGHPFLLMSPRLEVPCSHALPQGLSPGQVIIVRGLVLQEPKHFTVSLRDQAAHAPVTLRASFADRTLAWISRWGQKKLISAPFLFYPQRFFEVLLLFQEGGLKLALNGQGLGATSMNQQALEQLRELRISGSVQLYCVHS
As to the kind of experiment: Competitive solid-phase assay (SPA), immobilized asialofetuin, Gal-12. The format is binding. The following applies: mean ± S.D., three independent experiments. The protocol: as §1

Assay [8] has as its target T5, human Gal-12. As to the kind of experiment: Isothermal titration calorimetry (ITC), Gal-12. In kind it is binding. The following applies: Gal-12, PBS, 298 K, n fixed to 1.00. As to the method: as §4
For orientation: Isothermal titration calorimetry measures the heat released or taken up as one component is titrated into another.

Assay [9] concerns the target T1, human Gal-7. As to the kind of experiment: Isothermal titration calorimetry (ITC), Gal-7. The format is binding. The conditions noted are these: Gal-7, PBS, 298 K, n fixed to 1.00. As to the method: as §4
Assay [10] has as its target Gal-1. The arrangement: method as in PMID 15476813. The following applies: at 298 K; read-out: dissociation constant reported for Gal-1/LacNAc interactions; cited from earlier work.
Assay [11] relates to human PBMCs. As to the kind of experiment: IL-6 secretion by anti-CD3/CD28-activated PBMCs cultured with Gal-4 (IL-6 ELISA). In kind it is cell-based. The conditions noted are these: Gal-4 25, 50 or 100 μg/ml, 72 h. As to the method:
as §2, §3
For orientation: An ELISA detects its analyte on a solid surface through an enzyme-linked reagent.

Where “and” joins values, the source holds several entries; their conditions need not be identical. Equal entries are not always repeated.

T3 sequence (P17931 whole entry): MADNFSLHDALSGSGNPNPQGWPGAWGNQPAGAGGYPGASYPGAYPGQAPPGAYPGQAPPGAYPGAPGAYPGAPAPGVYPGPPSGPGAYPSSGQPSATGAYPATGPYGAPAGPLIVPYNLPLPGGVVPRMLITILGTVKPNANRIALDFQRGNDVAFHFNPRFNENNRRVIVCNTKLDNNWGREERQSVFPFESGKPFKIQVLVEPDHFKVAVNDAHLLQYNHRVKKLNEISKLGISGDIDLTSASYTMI
T1 sequence (P47929 whole entry): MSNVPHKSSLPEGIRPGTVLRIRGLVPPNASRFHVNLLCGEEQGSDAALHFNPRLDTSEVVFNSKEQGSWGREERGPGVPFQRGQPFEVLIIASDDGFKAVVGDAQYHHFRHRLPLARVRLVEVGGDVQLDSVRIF
T4 sequence (P09382 whole entry): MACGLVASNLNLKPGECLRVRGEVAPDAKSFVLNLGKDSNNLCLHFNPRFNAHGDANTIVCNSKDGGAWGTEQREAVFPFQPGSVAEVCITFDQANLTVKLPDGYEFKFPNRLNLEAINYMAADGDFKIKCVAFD

What is called IC50 is the point on the concentration scale where inhibition reaches its midpoint. Higher therefore signals lower potency. `CC(=O)NC1C(OC2C(O)C(CO)OC(OC3C(CO)OC(O)C(O)C3O)C2OC2OC(C)C(O)C(O)C2O)OC(CO)C(O)C1O` (stereo not drawn) [BGA6, blood group A antigen tetraose 6]: the IC50 in assay [1] is 5.4 ± 0.7 mM; in assay [2] it was 0.2 ± 0.1 mM; in assay [3], 1.5 ± 0.3 mM; in assay [4], 5 mM and 5.02 mM; in assay [7], 27.1 ± 1 mM. Moreover, the “Gal-4-driven IL-6 secretion by human activated PBMCs in presence of BGA6” value in assay [5] is listed as “effectively suppressed”. The “-TΔS” value in [6] is 1.77 ± 0.14 kcal/mol. In addition, the ΔH in [6] was -7.65 ± 0.72 kcal/mol. The molecule further came in with a Kd in [6] of 0.051 ± 0.003 mM.
For the molecule `CC(=O)NC1C(O)CC(OC2C(O)C(CO)OC(OC3C(CO)OC(O)C(O)C3OC3OC(C)C(O)C(O)C3O)C2O)(C(=O)O)OC1C(O)C(O)CO` (stereo not drawn) [SFL, 3’-sialyl-3-fucosyllactose], the IC50 was 4.8 ± 0.9 mM in assay [1], 39 ± 0.6 mM in assay [3], 5.7 ± 0.1 mM in assay [4] and 3.2 ± 0.4 mM in assay [7]. This molecule returned a Kd in [8] of 0.151 ± 0.011 mM.
With `CC(=O)NC1C(O)OC(CO)C(OC2OC(CO)C(O)C(OC3OC(CO)C(O)C(O)C3NC(C)=O)C2OC2OC(C)C(O)C(O)C2O)C1O` (stereo not drawn) [BGA2, blood group A antigen 2], the IC50 in assay [1] is 2.2 ± 0.4 mM; in assay [2], 0.2 mM and 0.24 mM; in assay [3] it was 1.9 ± 0.4 mM; in assay [4] it was 6.3 mM and 6.32 mM; in assay [7] it was 25.3 ± 12 mM. Moreover, the Kd stood at 0.103 ± 0.008 mM in assay [9] and 0.065 ± 0.005 mM in assay [6]. The “-TΔS” value in assay [6] was determined as 0.263 ± 0.048 kcal/mol. The ΔH in assay [6] is -5.98 ± 0.48 kcal/mol.
`CC(=O)NC1C(O)OC(CO)C(OC2OC(CO)C(O)C(O)C2O)C1O` (stereo not drawn) [LacNAc, N-acetyllactosamine]: the IC50 is 2.5 mM and 2.49 mM in assay [1]; 25.8 mM in assay [2]; 2 ± 0.2 mM in assay [3]; 1.3 ± 0.1 mM in assay [4]; 36 ± 0.9 mM in assay [7]. In [10], the Kd is 0.076 mM.
In the case of `CC(=O)NC1C(O)OC(CO)C(OC2OC(CO)C(O)C(O)C2O)C1OC1OC(C)C(O)C(O)C1O` (stereo not drawn) [Le^X, Lewis X trisaccharide], the IC50 was 15.1 ± 2 mM in assay [1]; 26.2 ± 0.9 mM in assay [2]; 9.5 ± 0.5 mM in assay [3]; 8.2 ± 0.9 mM in [4]; 2 ± 0.3 mM in [7]. The same molecule yielded a Kd in [8] of 0.08 ± 0.009 mM.

B1: Gal-4: recombinant full-length human galectin-4, tandem-repeat type lectin expressed in E. coli (protein)
chain: MAYVPAPGYQPTYNPTLPYYQPIPGGLNVGMSVYIQGVASEHMKRFFVNFVVGQDPGSDVAFHFNPRFDGWDKVVFNTLQGGKWGSEERKRSMPFKKGAAFELVFIVLAEHYKVVVNGNPFYEYGHRLPLQMVTHLQVDGDLQLQSINFIGGQPLRPQGPPMMPPYPGPGHCHQQLNSLPTMEGPPTFNPPVPYFGRLQGGLTARRTIIIKGYVPPTGKSFAINFKVGSSGDIALHINPRMGNGTVVRNSLLNGSWGSEEKKITHNPFGPGQFFDLSIRCGLDRFKVYANGQHLFDFAHRLSAFQRVDTLEIQGDVTLSYVQI
modifications: left off: His6, N-terminal, cleaved | SUMO, N-terminal, cleaved
notes: recombinant full-length human galectin-4, tandem-repeat type lectin expressed in E. coli
For B1, the “secretion of IL-6 by human-activated T lymphocytes in PBMCs” value in assay [11] was “significant and dose-dependent increase”.
